According to ChEMBL document CHEMBL5126607, “Discovery and In Vivo Evaluation of ACT-660602: A Potent and Selective Antagonist of the Chemokine Receptor CXCR3 for Autoimmune Diseases” (J Med Chem, 2022):

Assays:
[1] = biological target: T1, C-X-C chemokine receptor type 3 (Homo sapiens, UniProt P49682)
T1 sequence (P49682 whole entry): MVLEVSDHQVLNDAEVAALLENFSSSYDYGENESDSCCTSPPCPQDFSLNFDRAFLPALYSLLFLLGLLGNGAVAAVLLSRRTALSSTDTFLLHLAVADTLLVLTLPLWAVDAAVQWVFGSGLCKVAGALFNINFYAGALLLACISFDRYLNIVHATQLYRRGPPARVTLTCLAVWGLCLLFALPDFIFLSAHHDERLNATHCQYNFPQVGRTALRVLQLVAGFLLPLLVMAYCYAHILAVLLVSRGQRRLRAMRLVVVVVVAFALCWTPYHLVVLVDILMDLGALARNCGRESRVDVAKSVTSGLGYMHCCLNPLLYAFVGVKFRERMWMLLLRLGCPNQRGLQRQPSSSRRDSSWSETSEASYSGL
Description: Antagonist activity at recombinant human CXCR3 expressed in human CHO-K1 cells co-expressing Galpha15 incubated for 10 mins by Fluo-4AM dye based FLIPR assay

[2] = biological target: T1, C-X-C chemokine receptor type 3; remark: listed apart in the source
Description: Antagonist activity at recombinant human CXCR3 in human U2SO cells assessed as reduction in CXCL10-induced beta-arrestin recruitment by TANGO assay

[3] = biological target: Voltage-gated inwardly rectifying potassium channel KCNH2 (Homo sapiens, UniProt Q12809); assay: Inhibition of hERG expressed in CHO cells by Q patch-clamp method
in vitro = details: human
[4] = biological target: T1, C-X-C chemokine receptor type 3; remark: listed apart in the source
Description: Inhibition of CXCR3 receptor internalization in human venous whole blood incubated for 30 mins by flow cytometer analysis

hERG [5] = biological target: T2, hERG (Homo sapiens, UniProt Q12809); assay: Inhibition of hERG expressed in CHO cells 10 uM at by Q patch-clamp method relative to control
in vivo [6] = details: Balb/c, mouse, po, 10 mg/kg
[7] = human, microsomes, 1 µM
[8] = Fractional unbound plasma concentration in Balb/c mouse at 10 mg/kg, po
in vivo [9] = details: Balb/c, mouse, po, 10 mg/kg; remark: listed apart in the source
in vivo [10] = details: Balb/c, mouse, po, 10 mg/kg; remark: listed apart in the source
in vivo [11] = details: Wistar, rat, po, 2 mg/kg
[12] = Half life in Wistar rat at 0.5 mg/kg, iv and 2 mg/kg, po; details: in vivo
in vivo [13] = details: Wistar, rat, po, 2 mg/kg; remark: listed apart in the source
[14] = Fractional unbound plasma concentration in Beagle dog at 0.5 mg/kg, iv and 2 mg/kg, po
[15] = Metabolic stability in rat hepatocyte assessed as intrinsic clearance measured per 10^6 cells in presence of NADPH regenerating system by LC-MS/MS analysis; details: hepatocytes
[16] = Metabolic stability in Beagle dog hepatocyte assessed as intrinsic clearance measured per 10^6 cells in presence of NADPH regenerating system by LC-MS/MS analysis; details: hepatocytes
in vivo [17] = details: Wistar, rat, po, 2 mg/kg; remark: listed apart in the source
[18] = Fractional unbound plasma concentration in Wistar rat at 0.5 mg/kg, iv and 2 mg/kg, po; details: in vivo
in vivo [19] = details: Wistar, rat, po, 2 mg/kg; remark: listed apart in the source
[20] = Lipophilicity, log D of the compound at pH 7.4; details: buffer
hERG [21] = biological target: T2, hERG; assay: Inhibition of hERG expressed in CHO cells 3 uM at by Q patch-clamp method relative to control; assay type: toxicity, cell-based; details: CHO cells that express hERG

T2 sequence (Q12809 whole entry): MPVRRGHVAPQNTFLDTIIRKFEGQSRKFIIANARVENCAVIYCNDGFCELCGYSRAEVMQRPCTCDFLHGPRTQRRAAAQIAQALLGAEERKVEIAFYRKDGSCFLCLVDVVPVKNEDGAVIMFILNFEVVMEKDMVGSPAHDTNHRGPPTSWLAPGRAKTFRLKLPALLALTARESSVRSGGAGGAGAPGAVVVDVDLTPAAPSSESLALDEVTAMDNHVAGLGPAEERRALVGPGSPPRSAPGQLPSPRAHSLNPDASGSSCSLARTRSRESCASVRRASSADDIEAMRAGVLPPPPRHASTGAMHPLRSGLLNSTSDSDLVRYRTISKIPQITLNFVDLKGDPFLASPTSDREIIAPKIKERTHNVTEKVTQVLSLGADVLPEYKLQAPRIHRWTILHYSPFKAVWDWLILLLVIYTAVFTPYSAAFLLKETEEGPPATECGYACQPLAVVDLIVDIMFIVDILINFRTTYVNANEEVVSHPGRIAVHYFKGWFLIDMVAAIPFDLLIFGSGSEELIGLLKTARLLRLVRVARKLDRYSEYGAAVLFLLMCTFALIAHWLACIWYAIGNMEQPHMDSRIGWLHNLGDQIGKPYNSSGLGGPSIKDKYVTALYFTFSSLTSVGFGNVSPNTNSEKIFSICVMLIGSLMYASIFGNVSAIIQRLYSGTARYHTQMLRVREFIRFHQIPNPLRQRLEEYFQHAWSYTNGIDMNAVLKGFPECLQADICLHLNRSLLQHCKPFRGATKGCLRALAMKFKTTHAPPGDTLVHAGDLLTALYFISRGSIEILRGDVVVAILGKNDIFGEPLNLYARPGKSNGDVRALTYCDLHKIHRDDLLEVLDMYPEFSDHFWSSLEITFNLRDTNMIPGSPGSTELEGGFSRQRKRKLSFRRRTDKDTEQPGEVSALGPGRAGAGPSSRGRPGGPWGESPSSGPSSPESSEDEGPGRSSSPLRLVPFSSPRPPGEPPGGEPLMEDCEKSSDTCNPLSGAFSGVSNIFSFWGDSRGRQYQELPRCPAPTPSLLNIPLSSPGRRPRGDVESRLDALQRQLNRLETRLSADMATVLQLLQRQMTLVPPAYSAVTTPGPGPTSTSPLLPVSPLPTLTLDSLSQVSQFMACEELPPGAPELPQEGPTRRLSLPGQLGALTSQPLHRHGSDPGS
Sequence of Voltage-gated inwardly rectifying potassium channel KCNH2 (Q12809 whole entry): as above

SMILES | IC50 [1] [nM] | IC50 [2] [nM] | IC50 [3] [nM] | IC50 [4] [nM] | other results
C[C@H]1CN(c2scnc2-c2nc3ccccc3[nH]2)CCN1C(=O)Cn1cnc2cccnc21 | 67 | 8030 | 630 |  | 
CCc1nc(-c2nc3ccccc3[nH]2)c(N2CCN(C(=O)Cn3cnc4cccnc43)[C@H](C)C2)s1 |  |  |  |  | microsomal CLint at 1 µM (in vitro; liver microsomes): 88 µL/min/mg
O=C(Cn1cnc2cccnc21)N1CCN(c2ncsc2-c2nc3ccccc3[nH]2)CC1 | 4200 |  |  |  | 
CC[C@@H]1CN(c2scnc2-c2nc3ccccc3[nH]2)CCN1C(=O)Cn1cnc2cccnc21 | 3.9 | 604 | 750 |  | 
C[C@@H]1CN(c2sc(C3CC3)nc2-c2nc3ccccc3[nH]2)CCN1C(=O)Cn1cnc2cccnc21 | 9.7 | 745 | 380 | 994 | 
O=C(Cn1cnc2cccnc21)N1CCN(c2scnc2-c2nc3ccccc3[nH]2)CC1 | 30 |  |  | 1440 | 
C[C@@H]1CN(c2sc(C3COC3)nc2-c2nc3ccccc3[nH]2)CCN1C(=O)Cn1cnc2cccnc21 | 53 | 6220 | 4400 | 1150 | microsomal CLint at 1 µM (in vitro; microsomes): 38 µL/min/mg
C[C@@H]1CN(c2sc(CN(C)C)nc2-c2nc3ccccc3[nH]2)CCN1C(=O)Cn1cnc2cccnc21 | 50 | 2360 | 20000 | 1150 | inhibition at 10 µM (hERG [5]): 28%; microsomal CLint at 1 µM (in vitro; microsomes): 44 µL/min/mg
C[C@@H]1CN(c2sc(CO)nc2-c2nc3ccccc3[nH]2)CCN1C(=O)Cn1cnc2cccnc21 | 171 | > 10000 | 19000 | 3380 | 
Cc1nc(-c2nc3ccccc3[nH]2)c(N2CCN(C(=O)Cn3cnc4cccnc43)[C@H](C)C2)s1 | 9 | 1050 | 2600 | 1060 | microsomal CLint at 1 µM (in vitro; microsomes): 23 µL/min/mg
C[C@@H]1CN(c2sc(Br)nc2-c2nc3ccccc3[nH]2)CCN1C(=O)Cn1cnc2cccnc21 | 2.8 | 126 | 340 | 526 | 
CCOc1ncc(-c2nc(C(F)(F)F)sc2N2CCN(C(=O)Cn3ccc4cccnc43)[C@H](C)C2)cn1 |  |  | 4200 |  | 
CCOc1ncc(-c2nc(C(F)(F)F)sc2N2CCN(C(=O)Cn3cnc4cccnc43)[C@H](C)C2)cn1 | 2 | 20 | 13000 | 48 | AUC (in vivo [6]): 1590 ng·h/mL; inhibition at 10 µM (hERG [5]): 44%; CLH [7]: 4.5 mL/h/kg; fraction unbound [8]: 0.008; Tmax (in vivo [9]): 30 min; Cmax (in vivo [10]): 1800 ng/mL
CCOc1ncc(-c2nc(C(F)(F)F)sc2N2CCN(C(=O)CN3C(=O)Cc4ccccc43)[C@H](C)C2)cn1 |  |  | 3000 |  | 
Cc1nc(C)n(CC(=O)N2CCN(c3sc(C(F)(F)F)nc3-c3cnc(OC(C)C)nc3)C[C@H]2C)n1 | 3.4 | 138 | > 20000 | 216 | AUC (in vivo [11]): 3980 ng·h/mL; half-life [12]: 108 min; Tmax (in vivo [13]): 30 min; fraction unbound [14]: 0.192; hepatocyte CLint [15]: 2.5 µL/min/1e6 cells; hepatocyte CLint [16]: 6.8 µL/min/1e6 cells; bioavailability (in vivo [17]): 89%; fraction unbound [18]: 0.035; microsomal CLint at 1 µM (in vitro; microsomes): 16 µL/min/mg; Cmax (in vivo [19]): 806 ng/mL
CCCc1ncc(-c2nc(C(F)(F)F)sc2N2CCN(C(=O)Cn3cnc4cccnc43)[C@H](C)C2)cn1 |  |  | 5900 |  | inhibition at 10 µM (hERG [5]): 57%
CCOc1ncc(-c2nc(C(F)(F)F)sc2N2CCN(C(=O)Cn3ccc4cnccc43)[C@H](C)C2)cn1 |  |  | 570 |  | 
COc1ncc(-c2nc(C(F)(F)F)sc2N2CCN(C(=O)Cn3nc(C)nc3C)[C@H](C)C2)cn1 |  |  | > 20000 |  | 
COc1ccc(-c2nc(C(F)(F)F)sc2N2CCN(C(=O)Cn3nc(C)nc3C)[C@H](C)C2)cn1 |  |  | > 20000 |  | 
COc1ncc(-c2nc(C(F)(F)F)sc2N2CCN(C(=O)Cn3cnc4cccnc43)[C@H](C)C2)cn1 | 3.8 | 177 | > 20000 | 158 | inhibition at 10 µM (hERG [5]): 19%; CLH [7]: 0.84 mL/h/kg
Cc1nc(C)n(CC(=O)N2CCN(c3sc(C(F)(F)F)nc3-c3cnc(C(C)(C)C)nc3)C[C@H]2C)n1 |  |  | > 20000 |  | 
O=C(Cn1cnc2cccnc21)N1CCN(c2ccccc2-c2nc3ccccc3[nH]2)CC1 | 4.3 |  |  | 230 | 

SMILES | IC50 [1] [nM] | IC50 [2] [nM] | IC50 [3] [nM] | IC50 [4] [nM] | other results
CCc1ncc(-c2nc(C(F)(F)F)sc2N2CCN(C(=O)Cn3nc(C)nc3C)[C@H](C)C2)cn1 |  |  | > 20000 |  | 
O=C(Nc1cccnc1N1CCN(C(=O)Cn2cnc3cccnc32)CC1)c1cccc(Cl)c1 | 4.2 |  |  |  | 
CCOc1ncc(-c2nc(C(F)(F)F)sc2N2CCN(C(=O)Cn3cnc4ccccc43)[C@H](C)C2)cn1 |  |  | 4700 |  | 
O=C(Nc1ccccc1N1CCN(C(=O)Cn2cnc3cccnc32)CC1)c1cccc(Cl)c1 | 1.6 |  |  |  | 
CCOc1ncc(-c2nc(C(F)(F)F)sc2N2CCN(C(=O)Cn3nc(C)cc3C)[C@H](C)C2)cn1 | 2.3 | 87 | 13000 | 60 | logD [20]: 3.7; microsomal CLint at 1 µM (in vitro; microsomes): 184 µL/min/mg
CCOc1ncc(-c2nc(C(F)(F)F)sc2N2CCN(C(=O)Cn3ccc(C(F)(F)F)n3)[C@H](C)C2)cn1 | 3.8 | 93 | 5100 | 90 | microsomal CLint at 1 µM (in vitro; microsomes): 20 µL/min/mg
CCOc1ncc(-c2nc(C(F)(F)F)sc2N2CCN(C(=O)Cn3nccc3C)[C@H](C)C2)cn1 | 2 | 162 | 5600 | 289 | microsomal CLint at 1 µM (in vitro; microsomes): 65 µL/min/mg
COCCOc1ncc(-c2nc(C(F)(F)F)sc2N2CCN(C(=O)Cn3cnc4cccnc43)[C@H](C)C2)cn1 |  |  | > 20000 |  | inhibition at 10 µM (hERG [5]): 17%
Cc1ncc(-c2nc(C(F)(F)F)sc2N2CCN(C(=O)Cn3nc(C)nc3C)[C@H](C)C2)cn1 |  |  | > 20000 |  | 
CCOc1ncc(-c2nc(C(F)(F)F)sc2N2CCN(C(=O)Cn3cc(Cl)cn3)[C@H](C)C2)cn1 |  |  | 2800 |  | 
CCOc1ncc(-c2nc(C(F)(F)F)sc2N2CCN(C(=O)Cn3ncc4cccnc43)[C@H](C)C2)cn1 |  |  | 15000 |  | 
COc1ccc(-c2nc(C(F)(F)F)sc2N2CCN(C(=O)Cn3cnc4cccnc43)[C@H](C)C2)cc1 |  |  | 8800 |  | inhibition at 10 µM (hERG [5]): 53%
CCCc1ncc(-c2nc(C(F)(F)F)sc2N2CCN(C(=O)Cn3nc(C)nc3C)[C@H](C)C2)cn1 | 4.4 | 258 | > 20000 | 367 | microsomal CLint at 1 µM (in vitro; microsomes): 80 µL/min/mg
Cc1ncc(-c2nc(C(F)(F)F)sc2N2CCN(C(=O)Cn3cnc4cccnc43)[C@H](C)C2)cn1 |  |  | 15000 |  | inhibition at 10 µM (hERG [5]): 40%
CCOc1ncc(-c2nc(C(F)(F)F)sc2N2CCN(C(=O)Cn3cnc(C(F)(F)F)n3)[C@H](C)C2)cn1 |  |  | > 6000 |  | inhibition at 3 µM (hERG [21]): 31%
CCOc1ncc(-c2nc(C(F)(F)F)sc2N2CCN(C(=O)Cn3c(=O)oc4ccccc43)[C@H](C)C2)cn1 | 3.3 | 99 | 2200 | 536 | 
Cc1nc(C)n(CC(=O)N2CCN(c3sc(C(F)(F)F)nc3-c3ccc(C(F)(F)F)nc3)C[C@H]2C)n1 | 4.2 | 608 | 5200 | 860 | microsomal CLint at 1 µM (in vitro; microsomes): < 10 µL/min/mg
Cc1nc(C)n(CC(=O)N2CCN(c3sc(C(F)(F)F)nc3-c3cnc(OC4CCC4)nc3)C[C@H]2C)n1 | 4 | 78 | > 20000 | 306 | logD [20]: 3.6; microsomal CLint at 1 µM (in vitro; microsomes): 51 µL/min/mg
Cc1nc(C)n(CC(=O)N2CCN(c3sc(C(F)(F)F)nc3-c3cnc(C4CC4)nc3)C[C@H]2C)n1 | 3.5 | 349 | 13000 | 674 | microsomal CLint at 1 µM (in vitro; microsomes): < 10 µL/min/mg
Cc1nc(C)n(CC(=O)N2CCN(c3sc(C(F)(F)F)nc3-c3cnc(N4CCCC4)nc3)C[C@H]2C)n1 | 3.5 | 523 | > 20000 | 352 | 
CCOc1ccc(-c2nc(C(F)(F)F)sc2N2CCN(C(=O)Cn3nc(C)nc3C)[C@H](C)C2)cn1 | 8.8 | 505 | > 20000 | 887 | microsomal CLint at 1 µM (in vitro; microsomes): 66 µL/min/mg
C[C@@H]1CN(c2sc(C(F)(F)F)nc2-c2cnc(OCCN(C)C)nc2)CCN1C(=O)Cn1cnc2cccnc21 | 6.7 | 140 | > 20000 | 381 | inhibition at 10 µM (hERG [5]): 25%; CLH [7]: 1.74 mL/h/kg
